Test results taken from PubChem BioAssay (NCI).
Values joined by “and” are separate entries in the source; they are usually repeats but may differ in a detail not shown here. Identical values can stand only once.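 Following 48 hours of exposure in 96-well plates, responses at five concentrations were used to interpolate endpoints linearly. Here, GI50 denotes the concentration required for 50% inhibition of growth. TGI is the concentration that stops growth completely.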 Where a SMILES comes first, the peptide text is derived from it. [ ]: non-standard residue; d: D form. The star is where a group is joined. ξ: configuration not given here. ξF = NC(Cc1ccccc1)C(=O)O; Cbz = O=C(OCc1ccccc1)*; Aib = CC(C)(N)C(=O)O

What was measured:
Assay in all cases: NCI tumour cell line growth inhibition, 48 h
A498 renal = test system: A498 renal
ACHN renal = test system: ACHN renal
LOX IMVI melanoma = test system: LOX IMVI melanoma
MALME-3M melanoma = test system: MALME-3M melanoma
NCI-H23 lung = test system: NCI-H23 lung
SN12C renal = test system: SN12C renal
SNB-19 CNS = test system: SNB-19 CNS
SW-620 colon = test system: SW-620 colon
T-47D breast = test system: T-47D breast
UO-31 renal = test system: UO-31 renal

SMILES | TGI (A498 renal) | TGI (ACHN renal) | TGI (LOX IMVI melanoma) | TGI (MALME-3M melanoma) | TGI (NCI-H23 lung) | TGI (SN12C renal) | TGI (SNB-19 CNS) | TGI (SW-620 colon) | TGI (T-47D breast) | TGI (UO-31 renal) | GI50 (A498 renal) | GI50 (ACHN renal) | GI50 (LOX IMVI melanoma) | GI50 (MALME-3M melanoma) | GI50 (NCI-H23 lung) | GI50 (SN12C renal) | GI50 (SNB-19 CNS) | GI50 (SW-620 colon) | GI50 (T-47D breast) | GI50 (UO-31 renal)
CC(=O)Nc1cccc(N2C(=O)/C(=C\c3cccc(Oc4ccccc4)c3)S(=O)(=O)C2c2ccccc2)c1 (stereo not given) | > 100 µM | > 100 µM | > 100 µM | > 100 µM | > 100 µM | > 100 µM | > 100 µM | > 100 µM | > 100 µM | > 100 µM | – | – | – | – | – | – | – | – | – | –
COc1ccc(NC(C)=O)cc1N1C(=O)/C(=C\c2ccccc2)SC1c1cc(OC)c(OC)c(OC)c1 (stereo not given) | > 100 µM | > 100 µM | 34.5 µM | 56.2 µM | > 100 µM | > 100 µM | > 100 µM | > 100 µM | > 100 µM | > 100 µM | – | – | – | – | – | – | – | – | – | –
CN(CC(=O)O)Cc1c(O)c(Cl)cc(Cl)c1Cl | > 100 µM | > 100 µM | > 100 µM | > 100 µM | > 100 µM | > 100 µM | > 100 µM | > 100 µM | > 100 µM | > 100 µM | – | – | – | – | – | – | – | – | – | –
NC(=O)C1CCCN1C(=O)C(N)Cc1ccccc1 (stereo not drawn) (H-Phe-Pro-NH2; configuration not given here) | > 100 µM | > 100 µM | > 100 µM | > 100 µM | – | – | > 100 µM | > 100 µM | > 100 µM | > 100 µM | – | – | – | – | – | – | – | – | – | –
N#CC1=C2SCCN2C(=O)C(C#N)C12CCCCC2 (stereo not given) | > 100 µM | > 100 µM | > 100 µM | > 100 µM | > 100 µM | > 100 µM | > 100 µM | > 100 µM | > 100 µM | > 100 µM | – | – | – | – | – | – | – | – | – | –
Cc1cc2c(c(O)c1-c1c(C)cc(O)c3c1C(=O)C=CC3=O)C(=O)C=CC2=O | 18.9 µM | 1.44 µM | 4.21 µM | – | 18.4 µM | 7.59 µM | > 56.8 µM | – | 3.67 µM | 3.44 µM | – | – | – | – | – | – | – | – | – | –
O=C1c2cccnc2C(=O)c2c1c(C(=O)OCCN1CCCCC1)c1ccccn21 | 13.1 µM | 0.0534 µM | 0.095 µM | 0.424 µM | 0.0291 µM | 0.479 µM | 0.498 µM | 0.362 µM | 7.4 µM | 1.67 µM | 0.065 µM | 0.0129 µM | 0.0172 µM | 0.0847 µM | 0.0057 µM | 0.0138 µM | 0.013 µM | 0.0187 µM | 0.515 µM | 0.0389 µM
COc1ccccc1CC(C)N (stereo not given) | > 100 µM | > 100 µM | > 100 µM | > 100 µM | > 100 µM | > 100 µM | > 100 µM | > 100 µM | – | > 100 µM | – | – | – | – | – | – | – | – | – | –
C=C(C)[C@@H]1CCC2=C[C@H](C/C(C)=C\C3=CC(C)=C(O3)[C@H]1O)OC2=O | > 100 µM | > 100 µM | > 100 µM | > 100 µM | – | > 100 µM | > 100 µM | > 100 µM | > 100 µM | > 100 µM | – | – | – | – | – | – | – | – | – | –
CCCCCCCCCCCCCCCCCCNc1ccn(C2OC(CO)C(OP(=O)(O)OCC(O)COP(=O)(O)OCC3OC(n4cc(F)c(NCCCCCCCCCCCCCCCCCC)nc4=O)CC3O)C2O)c(=O)n1 (stereo not given) | > 50 µM | > 50 µM | > 50 µM | > 50 µM | > 50 µM | > 50 µM | > 50 µM | > 50 µM | > 50 µM | > 50 µM | – | – | – | – | – | – | – | – | – | –
O=C(NCCC1CN(C(=O)OCc2ccccc2)c2ccccc21)OCc1ccccc1 (stereo not given) | > 100 µM | > 100 µM | – | > 100 µM | > 100 µM | – | > 100 µM | > 100 µM | – | > 100 µM | – | – | – | – | – | – | – | – | – | –
COc1cc(/C=N/c2nc3cc4sc(/N=C/c5cc(OC)c(OC)c(OC)c5)nc4cc3s2)cc(OC)c1OC | > 100 µM | > 100 µM | > 100 µM | > 100 µM | > 100 µM | > 100 µM | > 100 µM | > 100 µM | > 100 µM | > 100 µM | – | – | – | – | – | – | – | – | – | –
CC1C(=O)CC(c2cccs2)N(N=O)C1c1cccs1 (stereo not given) | > 70.9 µM | – | > 100 µM | > 100 µM | > 100 µM | > 100 µM | > 100 µM | > 100 µM | – | > 100 µM | – | – | – | – | – | – | – | – | – | –
CCCCCCCCCCCCCC1=C(O)C(=O)C(CC2=C(O)C(=O)C(CCCCCCCCCCCCC)=C(O)C2=O)=C(O)C1=O | > 100 µM | > 100 µM | > 100 µM | > 100 µM | > 100 µM | > 100 µM | 92.9 µM | > 100 µM | > 100 µM | > 100 µM | – | – | – | – | – | – | – | – | – | –
CCCCN1C(=O)c2c(Br)sc(Br)c2C1=O | > 100 µM | > 100 µM | > 100 µM | > 100 µM | > 100 µM | 95.8 µM | > 100 µM | 66.2 µM | > 100 µM | > 100 µM | – | – | – | – | – | – | – | – | – | –
COc1ccc(-c2nc3c(nc2-c2ccc(OC)cc2)C(N)=NS(=O)(=O)N3)cc1 | > 100 µM | > 100 µM | > 100 µM | > 100 µM | > 100 µM | > 100 µM | > 100 µM | > 100 µM | – | > 100 µM | – | – | – | – | – | – | – | – | – | –
Cc1[nH]c(=O)[nH]c(=O)c1/C=C/C(=O)NC(CO)CS(=O)CS(C)=O (stereo not given) | 130 µM | – | 86.9 µM | 57.9 µM | 43.7 µM | 91.5 µM | 77.9 µM | 409 µM | – | 130 µM | – | – | – | – | – | – | – | – | – | –
CCN(CC)CC[n+]1ccc2c(C)c3[nH]c4ccc(O)cc4c3c(C)c2c1 | 74.6 µM and 84.3 µM | 16.5 µM | 44 µM and 58.3 µM | 19.3 µM and 22.3 µM | 25.1 µM and 22.5 µM | 6.42 µM and 3.25 µM | 8.76 µM and 10.8 µM | 93.1 µM and 88.3 µM | 12.3 µM | > 96.1 µM and 150 µM | 20.5 µM | – | 6.73 µM | 3.91 µM | 2.45 µM | 0.211 µM | 0.634 µM | – | – | 20.6 µM
CCOC(=O)CNC(=O)C(Cc1ccccc1)NC(=O)C(C)(C)NC(=O)OCc1ccccc1 (stereo not given) (Cbz-[Aib]-[ξF]-Gly-OEt) | > 100 µM | > 100 µM | > 100 µM | 36.2 µM | – | – | > 100 µM | > 100 µM | > 100 µM | > 100 µM | – | – | – | – | – | – | – | – | – | –
CCOC(=O)Cn1c2ccc(Br)cc2c2nc3ccccc3nc21 | > 100 µM | > 100 µM | > 100 µM | – | > 100 µM | > 100 µM | > 100 µM | > 100 µM | > 100 µM | > 100 µM | – | – | – | – | – | – | – | – | – | –
